Experiments:
[1] = tested on: UACC 903 melanoma cells; assay: Natural product library NPL-480 primary screen, MTS viability; assay type: cell-based; conditions: Homo sapiens, 5 μmol/L, 24 hours, MTS assay, read-out: decrease of cell viability
Procedure: Natural product library NPL-480 (from TimTec Inc., Newark, Del.) consisting of 480 compounds derived from plants, animal, bacteria and fungus is screened using MTS assay to identify agents reducing cell growth of melanoma cells. Compounds of the NPL-480 library that are supplied as powders or oils are dissolved in DMSO to a stock concentration of 10 mM and stored at −20° C. DMSO concentrations in the reaction mixture are controlled to not exceed 0.5% (vol/vol). 5×10^3 UACC 903 melanoma cells are plated in 96 well plates for 24 hours followed by treatment with each compound at 5 μmol/L for 24 hours. Viability is measured using the MTS assay as described in Sharma, A. et al., Clin Cancer Res, 2009, 15:1674-85; and Madhunapantula, S. V. et al., Mol Cancer Ther, 2008, 7:1297-308. This primary screen identified 12 compounds effective to decrease melanoma cells viability by ˜50% or more.

[2] = tested on: UACC 903 xenograft tumors; assay: Size and time matched tumors (Ki-67, TUNEL, CD31, Western blot); assay type: in vivo, mice
Excerpt: Rates of cell proliferation (using Ki-67), apoptosis (using terminal deoxynucleotidyl transferase-mediated dUTP nick-end labeling) and tumor angiogenesis (using CD31 staining) are quantified in time and size matched tumors treated with leelamine compared with DMSO treated control animals to identify the underlying mechanism by which leelamine inhibits melanoma tumor development using an established method described in Sharma, A. et al., Clin Cancer Res, 2009, 15:1674-85; Madhunapantula, S. V. et al., Mol Cancer Ther, 2008, 7:1297-308; Sharma, A. et al., Cancer Res, 2006, 66:8200-9; and Stahl, J. M. et al., Cancer Res, 2003, 63:2881-90. Size and time matched tumors at each time are compared to identify the first statistically quantifiable difference(s) affected by leelamine treatment in the rates of processes regulating tumor development i.e. cell proliferation, apoptosis or vascular development. […] Cell proliferation is measured using mouse anti-human Ki-67 staining from Pharmigen (San Diego, Calif.). Apoptosis rates are scored using “terminal deoxynucleotidyl transferase-mediated dUTP nick end labeling (TUNEL)” TMR Red Apoptosis kit from Roche (Mannheim, Germany). […] The number of Ki-67 and TUNEL positive cells is quantified as the percentage of total cells in tumors using the IP Lab imaging software program. For CD31, the area occupied by blood vessels is measured. […]

[3] = tested on: UACC 903 human melanoma cell tumors; assay: Melanoma xenograft tumor development, UACC 903; assay type: in vivo, mice
Procedure: The efficacy of leelamine for inhibiting melanoma tumor development is evaluated on preexisting tumors formed following subcutaneous injection of cancer cells into nude mice. Tumor kinetics are measured by subcutaneous injection of 1.0×10^6 UACC 903 or 1205 Lu cells in 0.2 mL of DMEM supplemented with 10% FBS subcutaneously injected above both left and right rib cages of 3- to 4-wk-old female athymic nude-Foxn1^nu mice (Harlan Laboratories, Indianapolis, Ind.). Six days later, when a fully vascularized tumor (50-75 mm^3) has formed, mice are randomly divided into DMSO vehicle control and experimental groups (5 mice/group; 2 tumors/mouse) and treated intraperitoneally with 2.5-7.5 mg/kg body weight leelamine daily for 3-4 weeks. Body weight (grams) and dimensions of the developing tumors (mm^3) are measured at the time of drug treatment as described in Sharma, A. et al., Clin Cancer Res, 2009, 15:1674-85; and Madhunapantula, S. V. et al., Mol Cancer Ther, 2008, 7:1297-308.
In this example, leelamine (40, 60, or 80 mg/kg body weight) is administered orally to 4-6 weeks old nude mice bearing UACC903 melanoma cell tumors (50-100 mm^3). Sizes of developing tumors are measured. […] Values±S.E.M. (n=5)
Tumor kinetics are measured by subcutaneous injection of 1.0×10^6 UACC 903 or 1205 Lu cells in 0.2 mL of DMEM supplemented with 10% FBS subcutaneously injected above both left and right rib cages of 3- to 4-wk-old female athymic nude-Foxn1^nu mice (Harlan Laboratories, Indianapolis, Ind.). Six days later, when a fully vascularized tumor (50-75 mm^3) has formed, mice are randomly divided into control and experimental groups (5 mice/group; 2 tumors/mouse) and treated with 30-mg/kg body weight of empty liposome vehicle, abietic acid liposomes or Nanolipolee-007 intravenously each day for 3-4 weeks. Body weight (grams) and dimensions of the developing tumors (mm^3) are measured at the time of drug treatment.

CC(C)c1ccc2c(c1)CCC1[C@](C)(CN)CCC[C@]21C (stereo partly drawn) [Leelamine, [(1R,4aS)-1,4a-dimethyl-7-(propan-2-yl)-1,2,3,4,4a,9,10,10a-octahydrophenanthren-1-yl]methanamine]
cytotoxicity at 5 µM [1]: ~95% | reduction in proliferating cells (Ki-67) ([2]; day 11, i.p. 7.5 mg/kg daily from day 6, vs DMSO): 50% | active pAkt in tumor lysates (Western blot) ([2]; days 11, 13 and 15, treated from day 6): decreased active pAkt | body weights of tumor bearing mice ([3]; UACC 903 and 1205 Lu xenograft nude mice, i.p. 2.5-7.5 mg/kg daily): no significant differences | reduction of tumor volume, UACC 903 ([3]; intraperitoneally 2.5-7.5 mg/kg daily for 3-4 weeks, compared to DMSO vehicle): 61% | reduction of tumor growth development, oral ([3]; orally 40, 60 or 80 mg/kg, compared to DMSO control): ~45%
